Patent US6383479B1, “Neutrophil-activating factor” (Novartis AG, priority 1987, dated 2002)

Legend:
Format in all cases: cell-based
human neutrophils [1] = assay: elastase release from human neutrophils pretreated with cytochalasin B (NAF activity); settings: phosphocellulose fractions
Excerpt: Human monocytes are isolated from buffy coats of donor blood (Swiss Red Cross Laboratory, Bern, Switzerland) by centrifugation through a Ficoll-Paque gradient. This method separates neutrophils from the so-called mononuclear cells, a mixture of monocytes (about 20%) and lymphocytes (about 80%). Three monocyte preparations are used: (i) the total mononuclear cell fraction, (ii) monocytes enriched from the mononuclear cell fraction by adherence, and (iii) 90% pure monocytes separated from the lymphocytes by centrifugal elutriation (G. Garotta et al., Biochem. Biophys. Res. Comm. 140 [1986] 948-954 and K. J. Clemetson et al., J. Exp. Med. 161 [1985] 972-983). The cells are cultured in MEM-PPL and stimulated with increasing concentrations (0.1 ng to 1 μg/ml) of LPS. At different times, aliquots of the culture media are sampled and NAF activity is determined as the capacity to induce the release of elastase from human neutrophils pretreated with cytochalasin B (B. Dewald et al., Biochem. Pharmacol. 36 [1987] 2505-2510).
Mononuclear cells obtained from donor blood buffy coats as described in Example 1 are cultured in MEM-PPL for 48 h in the presence of 100 ng/ml LPS in stirred culture bottles (1.5 liter, 5×10^6 cells/ml). […] Absorbance at 280 nm is monitored continuously as a measure of protein. […]

human neutrophils [2] = assay: stimulus-dependent exocytosis of granule contents by human neutrophils
Description: Neutrophils (5×10^6/ml) suspended in PBS/BSA are preincubated with or without cytochalasin B (5 μg/ml) at 37° for 5 min.
Granule release is then initiated by adding the stimulus, e.g. NAF or a standard stimulus. The reaction is stopped 15 min later by rapid cooling in ice followed by centrifugation to sediment the cells. Vitamin B12-binding protein, β-glucuronidase and lactate dehydrogenase are determined in the cell-free media and cell pellets, and the release of these constituents is calculated in percent of the total cellular content (B. Dewalt and M. Baggiolini, Methods Enzymol. 132 [1986] 267).
(§1) Natural and recombinant NAF are tested in parallel on human neutrophils. They elicit virtually identical changes in cytosolic free Ca^2+, yielding a maximum rise at a concentration as low as 3 nM (FIG. 15). A nearly identical concentration-dependent respiratory burst response is obtained with both preparations in the range of 1 to 30 nM as assessed by chemiluminescence. The equivalence between natural and recombinant NAF is also reflected by chemotaxis and exocytosis measurements. Chemotactic migration is observed between 0.1 and 10 nM with a maximum effect at 1 nM. (Table 6). With either peptide a significant release of vitamin B12-binding protein from the specific granules at 0.3 nM and of beta-glucuronidase from the azurophil granules at 1 nM is observed.

human neutrophils [3] = assay: cytosolic free Ca2+ changes in quin-2 loaded human neutrophils; settings: as low as
Description: Upper graphs: cytosolic free Ca^2+ changes induced by natural (left) and recombinant (right) NAF. Neutrophils (4×10^6 cells/ml) are loaded with 0.1 nmol quin-2/AM and then stimulated with 3 nM NAF (mark). Quin-2 saturation changes calibrated as described in V. Von Tscharner et al., J. Biol. Chem. 261 (1986) 10163-10168.
as §1

human neutrophils [4] = assay: NAF-induced neutrophil chemotaxis (leading front migration); settings: for leading front migration: random migration 61 ± 5 μm
Description: as §1

Substance	elastase-releasing activity (human neutrophils [1])	concentration giving significant release of beta-glucuronidase from the azurophil granules (human neutrophils [2])	concentration giving significant release of vitamin B12-binding protein from the specific granules (human neutrophils [2])	concentration yielding a maximum rise in cytosolic free Ca2+ (human neutrophils [3])	concentration of maximum chemotactic effect (human neutrophils [4])	leading front migration (human neutrophils [4]; NAF 0.1 nM)	leading front migration (human neutrophils [4]; NAF 1.0 nM)	leading front migration (human neutrophils [4]; NAF 10.0 nM)
interleukin-1 [IL-1]	no elastase-releasing activity	–	–	–	–	–	–	–
natural NAF: NAF purified from culture fluid of LPS-stimulated human monocytes	–	1 nM	0.3 nM	3 nM	1 nM	98 ± 6 μm	123 ± 6 μm	127 ± 3 μm
recombinant NAF: 72-amino-acid NAF obtained by recombinant DNA processes, expressed in E. coli	–	1 nM	0.3 nM	3 nM	1 nM	88 ± 6 μm	124 ± 3 μm	126 ± 4 μm
